Measurements from patent US9580437B2, “Triazolopyrimidine compounds and uses thereof” (Novartis AG, priority 2014, dated 2017).

Assays:
EED (1-441)-His protein = EED (1-441)-His protein (Homo sapiens (Human), UniProt O75530); test: EED-H3K27Me3 peptide competition binding assay by AlphaScreen; settings: read-out: (a) IC50 EED Alphascreen binding Qualified
Text: EED-H3K27Me3 peptide competition binding assay by AlphaScreen (α-screen)

[1] = biological target: wild type PRC2 (wtPRC2) complex (Homo sapiens (Human), UniProt O75530); test: EED LC-MS assay; assay type: biochemical; settings: read-out: (b) IC50 EED LC-MS Qualified
Protocol: A 6 μL solution of 3 μM of the peptide substrate H3K27Me0 (histone H3[21-44]-biotin) in reaction buffer was added to initiate each reaction. […] ELISA (H3K27 Methylation) Assay

Sequence of EED (1-441)-His protein (O75530 whole entry): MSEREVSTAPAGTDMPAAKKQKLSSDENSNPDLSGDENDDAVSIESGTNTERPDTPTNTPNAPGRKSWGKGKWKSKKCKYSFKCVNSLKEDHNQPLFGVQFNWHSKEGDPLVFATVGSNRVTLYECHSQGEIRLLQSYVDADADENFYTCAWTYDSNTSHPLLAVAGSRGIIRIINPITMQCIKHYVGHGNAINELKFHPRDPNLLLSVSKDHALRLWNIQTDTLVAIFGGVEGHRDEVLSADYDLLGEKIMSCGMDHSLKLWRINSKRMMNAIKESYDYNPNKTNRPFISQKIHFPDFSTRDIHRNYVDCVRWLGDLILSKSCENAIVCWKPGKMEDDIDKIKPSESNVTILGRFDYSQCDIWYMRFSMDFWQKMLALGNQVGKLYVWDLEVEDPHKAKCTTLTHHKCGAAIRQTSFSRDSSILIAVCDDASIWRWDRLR
Sequence of wild type PRC2 (wtPRC2) complex (O75530 whole entry): as above
Sequence of wild type PRC2 (wtPRC2) complex (Q15910 whole entry partner): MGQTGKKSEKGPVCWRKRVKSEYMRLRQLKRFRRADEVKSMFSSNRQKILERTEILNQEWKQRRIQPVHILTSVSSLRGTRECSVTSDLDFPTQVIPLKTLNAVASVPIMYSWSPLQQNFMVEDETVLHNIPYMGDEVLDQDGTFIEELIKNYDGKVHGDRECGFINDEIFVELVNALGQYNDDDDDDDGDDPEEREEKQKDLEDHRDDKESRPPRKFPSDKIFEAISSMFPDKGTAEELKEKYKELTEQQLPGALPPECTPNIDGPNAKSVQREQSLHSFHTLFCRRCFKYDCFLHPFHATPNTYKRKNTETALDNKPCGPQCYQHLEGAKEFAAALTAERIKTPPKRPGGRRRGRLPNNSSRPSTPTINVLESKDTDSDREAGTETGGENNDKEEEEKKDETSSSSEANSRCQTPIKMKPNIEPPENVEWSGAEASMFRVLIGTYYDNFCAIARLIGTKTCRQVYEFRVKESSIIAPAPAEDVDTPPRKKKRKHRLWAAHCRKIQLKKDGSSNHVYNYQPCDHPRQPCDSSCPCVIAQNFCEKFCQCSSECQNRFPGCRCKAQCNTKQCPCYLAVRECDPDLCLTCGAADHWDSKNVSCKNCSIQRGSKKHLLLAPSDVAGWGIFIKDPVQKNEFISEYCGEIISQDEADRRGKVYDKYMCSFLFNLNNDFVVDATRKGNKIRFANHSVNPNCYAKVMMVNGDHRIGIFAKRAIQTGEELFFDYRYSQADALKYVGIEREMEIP
Sequence of wild type PRC2 (wtPRC2) complex (Q15022 whole entry partner): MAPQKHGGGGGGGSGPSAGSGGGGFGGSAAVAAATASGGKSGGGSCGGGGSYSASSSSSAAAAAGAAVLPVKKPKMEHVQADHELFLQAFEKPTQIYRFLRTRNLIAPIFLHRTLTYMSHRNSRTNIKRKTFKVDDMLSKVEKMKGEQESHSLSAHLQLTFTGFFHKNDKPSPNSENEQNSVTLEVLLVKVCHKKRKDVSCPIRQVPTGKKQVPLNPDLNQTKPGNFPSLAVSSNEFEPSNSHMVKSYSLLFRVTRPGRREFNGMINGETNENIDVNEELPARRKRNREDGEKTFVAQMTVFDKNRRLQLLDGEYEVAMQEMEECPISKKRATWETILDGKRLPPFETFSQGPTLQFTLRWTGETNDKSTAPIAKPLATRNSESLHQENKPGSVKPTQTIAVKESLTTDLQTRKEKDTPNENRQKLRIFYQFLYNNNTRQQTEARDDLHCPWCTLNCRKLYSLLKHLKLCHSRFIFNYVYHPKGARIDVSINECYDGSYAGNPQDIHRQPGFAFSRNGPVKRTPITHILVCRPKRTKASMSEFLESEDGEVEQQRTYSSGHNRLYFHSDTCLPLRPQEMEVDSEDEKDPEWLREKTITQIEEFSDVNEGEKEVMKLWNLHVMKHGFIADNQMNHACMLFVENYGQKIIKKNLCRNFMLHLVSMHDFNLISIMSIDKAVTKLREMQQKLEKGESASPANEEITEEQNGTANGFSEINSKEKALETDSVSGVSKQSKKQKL

Structure (SMILES) | IC50 (EED (1-441)-His protein) [nM] | IC50 [1] [nM]
Cn1cc(-c2cnc(NCc3c(F)ccc4c3CCO4)n3cnnc23)cn1 [Example 147, N-((5-fluoro-2,3-dihydrobenzofuran-4-yl)methyl)-8-(1-methyl-1H-pyrazol-4-yl)-[1,2,4]triazolo[4,3-c]pyrimidin-5-amine] | 3.6 | 15.9
CS(=O)(=O)CCOc1cncc(-c2cnc(NCc3cccc4c3CCO4)n3cnnc23)c1 [Example 106, N-((2,3-dihydrobenzofuran-4-yl)methyl)-8-(5-(2-(methylsulfonyl)ethoxy)pyridin-3-yl)-[1,2,4]triazolo[4,3-c]pyrimidin-5-amine] | 25 | 34.1
CN1CCN(c2ccc(-c3cnc(NCc4cccc5occc45)n4cnnc34)cc2)CC1 [Example 209, N-(benzofuran-4-ylmethyl)-8-(4-(4-methylpiperazin-1-yl)phenyl)-[1,2,4]triazolo[4,3-c]pyrimidin-5-amine] | 36.9 | 29
COc1cc(Cl)c(-c2cnc(NCc3c(F)ccc4c3CCO4)n3cnnc23)cn1 [Example 138, 8-(4-chloro-6-methoxypyridin-3-yl)-N-((5-fluoro-2,3-dihydrobenzofuran-4-yl)methyl)-[1,2,4]triazolo[4,3-c]pyrimidin-5-amine] | 1.9 | 8.4
FC(F)Oc1ccc(-c2cnc(NCc3cccc4c3CCO4)n3cnnc23)cn1 [Example 78, 8-(6-(difluoromethoxy)pyridin-3-yl)-N-((2,3-dihydrobenzofuran-4-yl)methyl)-[1,2,4]triazolo[4,3-c]pyrimidin-5-amine] | 103 | 160
CC1CN(c2ccc(-c3cnc(NCc4cccc5c4CCO5)n4cnnc34)cn2)CC(C)O1 (stereo not drawn) [Example 74, N-((2,3-dihydrobenzofuran-4-yl)methyl)-8-(6-(2,6-dimethylmorpholino)pyridin-3-yl)-[1,2,4]triazolo[4,3-c]pyrimidin-5-amine] | 89.6 | 139
OC1CN(c2ccc(-c3cnc(NCc4cccc5c4CCO5)n4cnnc34)cn2)C1 [Example 126, 1-(5-(5-(((2,3-dihydrobenzofuran-4-yl)methyl)amino)-[1,2,4]triazolo[4,3-c]pyrimidin-8-yl)pyridin-2-yl)azetidin-3-ol] | 12.9 | 17.2
COc1ncc(-c2cnc(NCc3c(F)ccc4c3CCO4)n3cnnc23)c(C)n1 [Example 175, N-((5-fluoro-2,3-dihydrobenzofuran-4-yl)methyl)-8-(2-methoxy-4-methylpyrimidin-5-yl)-[1,2,4]triazolo[4,3-c]pyrimidin-5-amine] | 6.3 | 9.2
OCc1ccc(-c2cnc(NCc3c(F)ccc4c3CCO4)n3cnnc23)cn1 [Example 234, (5-(5-(((5-fluoro-2,3-dihydrobenzofuran-4-yl)methyl)amino)-[1,2,4]triazolo[4,3-c]pyrimidin-8-yl)pyridin-2-yl)methanol] | 5.4 | 11.2
OCc1ncccc1-c1cnc(NCc2c(F)ccc3c2C(O)CO3)n2cnnc12 (stereo not drawn) [Example 243, 5-fluoro-4-(((8-(2-(hydroxymethyl)pyridin-3-yl)-[1,2,4]triazolo[4,3-c]pyrimidin-5-yl)amino)methyl)-2,3-dihydrobenzofuran-3-ol] | 15.4 | 59
CN(C)c1cc(F)c(-c2cnc(NCc3cccc4c3CCO4)n3cnnc23)cn1 [Example 112, N-((2,3-dihydrobenzofuran-4-yl)methyl)-8-(6-(dimethylamino)-4-fluoropyridin-3-yl)-[1,2,4]triazolo[4,3-c]pyrimidin-5-amine] | 17.7 | 17.6
Cc1ncncc1-c1cnc(NCc2c(F)ccc3c2CCO3)n2cnnc12 [Example 176, N-((5-fluoro-2,3-dihydrobenzofuran-4-yl)methyl)-8-(4-methylpyrimidin-5-yl)-[1,2,4]triazolo[4,3-c]pyrimidin-5-amine] | 5.9 | 8.3
CC(C)n1cc(-c2cnc(NCc3c(F)ccc4c3CCO4)n3cnnc23)c(C(F)(F)F)n1 [Example 148, N-((5-fluoro-2,3-dihydrobenzofuran-4-yl)methyl)-8-(1-isopropyl-3-(trifluoromethyl)-1H-pyrazol-4-yl)-[1,2,4]triazolo[4,3-c]pyrimidin-5-amine] | 5.2 | 18
CC1Cc2c(CNc3ncc(-c4ccc(CN(C)C)cc4)c4nncn34)cccc2O1 (stereo not drawn) [Example 22, 8-(4-((dimethylamino)methyl)phenyl)-N-((2-methyl-2,3-dihydrobenzofuran-4-yl)methyl)-[1,2,4]triazolo[4,3-c]pyrimidin-5-amine] | 1980 | 1820
CS(=O)(=O)c1cccc(-c2cnc(NCc3cccc4c3CCO4)n3cnnc23)c1 [Example 27, N-((2,3-dihydrobenzofuran-4-yl)methyl)-8-(3-(methylsulfonyl)phenyl)-[1,2,4]triazolo[4,3-c]pyrimidin-5-amine] | 19.9 | 47.2
COC(=O)N1CCN(c2ccc(-c3cnc(NCc4cccc5c4CCO5)n4cnnc34)cn2)CC1 [Example 97, methyl 4-(5-(5-(((2,3-dihydrobenzofuran-4-yl)methyl)amino)-[1,2,4]triazolo[4,3-c]pyrimidin-8-yl)pyridin-2-yl)piperazine-1-carboxylate] | 6.1 | 8.6

The remaining compounds from weak to strong by IC50 (EED (1-441)-His protein), led by results:

IC50 (EED (1-441)-His protein) [nM] | IC50 [1] [nM] | Structure (SMILES)
25.7 | 34.7 | CN(C)c1ncc(-c2cnc(NCc3cccc4c3CCO4)n3cnnc23)cn1 [Example 88, N-((2,3-dihydrobenzofuran-4-yl)methyl)-8-(2-(dimethylamino)pyrimidin-5-yl)-[1,2,4]triazolo[4,3-c]pyrimidin-5-amine]
19.2 | 43.7 | NC(=O)c1ccccc1-c1cnc(NCc2c(F)ccc3c2CCO3)n2cnnc12 [Example 122, 2-(5-(((5-fluoro-2,3-dihydrobenzofuran-4-yl)methyl)amino)-[1,2,4]triazolo[4,3-c]pyrimidin-8-yl)benzamide]
14.4 | 17.1 | CN1CCN(c2ccc(-c3cnc(NCc4cccc5c4CCO5)n4cnnc34)cn2)CC1 [Example 20, N-((2,3-dihydrobenzofuran-4-yl)methyl)-8-(6-(4-methylpiperazin-1-yl)pyridin-3-yl)-[1,2,4]triazolo[4,3-c]pyrimidin-5-amine]
14 | 31.5 | FC1(F)CCN(CCc2ccc(-c3cnc(NCc4cccc5c4CCO5)n4cnnc34)cn2)C1 [Example 100, 8-(6-(2-(3,3-difluoropyrrolidin-1-yl)ethyl)pyridin-3-yl)-N-((2,3-dihydrobenzofuran-4-yl)methyl)-[1,2,4]triazolo[4,3-c]pyrimidin-5-amine]
12.8 | 20.6 | CN(C)S(=O)(=O)c1ccc(-c2cnc(NCc3cccc4c3CCO4)n3cnnc23)cc1 [Example 15, 4-(5-(((2,3-dihydrobenzofuran-4-yl)methyl)amino)-[1,2,4]triazolo[4,3-c]pyrimidin-8-yl)-N,N-dimethylbenzenesulfonamide]
9.3 | 17.5 | CN1CCN(C(=O)c2ccc(-c3cnc(NCc4c(F)ccc5c4CCO5)n4cnnc34)cc2)CC1 [Example 72, (4-(5-(((5-fluoro-2,3-dihydrobenzofuran-4-yl)methyl)amino)-[1,2,4]triazolo[4,3-c]pyrimidin-8-yl)phenyl)(4-methylpiperazin-1-yl)methanone]
9.1 | 9.5 | Fc1ccc2c(c1CNc1ncc(-c3cncnc3)c3nncn13)CCO2 [Example 206, N-((5-fluoro-2,3-dihydrobenzofuran-4-yl)methyl)-8-(pyrimidin-5-yl)-[1,2,4]triazolo[4,3-c]pyrimidin-5-amine]
5.4 | 7 | Cc1cc(C#N)ccc1-c1cnc(NCc2c(F)ccc3c2CCO3)n2cnnc12 [Example 178, 4-(5-(((5-fluoro-2,3-dihydrobenzofuran-4-yl)methyl)amino)-[1,2,4]triazolo[4,3-c]pyrimidin-8-yl)-3-methylbenzonitrile]
4.9 | 14.3 | Fc1ccc2c(c1CNc1ncc(-n3ccnc3)c3nncn13)CCO2 [Example 240, N-((5-fluoro-2,3-dihydrobenzofuran-4-yl)methyl)-8-(1H-imidazol-1-yl)-[1,2,4]triazolo[4,3-c]pyrimidin-5-amine]
4.8 | 9.3 | OCc1ncccc1-c1cnc(NCc2c(F)ccc3c2CCO3)n2cnnc12 [Example 7, (3-(5-(((5-fluoro-2,3-dihydrobenzofuran-4-yl)methyl)amino)-[1,2,4]triazolo[4,3-c]pyrimidin-8-yl)pyridin-2-yl)methanol]
4.1 | 10.9 | Cc1cnccc1-c1cnc(NCc2c(F)ccc3c2CCO3)n2cnnc12 [Example 163, N-((5-fluoro-2,3-dihydrobenzofuran-4-yl)methyl)-8-(3-methylpyridin-4-yl)-[1,2,4]triazolo[4,3-c]pyrimidin-5-amine]
4.1 | 7.9 | Cc1nc(OC(C)C)ncc1-c1cnc(NCc2c(F)ccc3c2CCO3)n2cnnc12 [Example 9, N-((5-fluoro-2,3-dihydrobenzofuran-4-yl)methyl)-8-(2-isopropoxy-4-methylpyrimidin-5-yl)-[1,2,4]triazolo[4,3-c]pyrimidin-5-amine]
3.8 | 4.4 | Cc1nccc(-c2cnc(NCc3c(F)ccc4c3CCO4)n3cnnc23)c1C [Example 177, 8-(2,3-dimethylpyridin-4-yl)-N-((5-fluoro-2,3-dihydrobenzofuran-4-yl)methyl)-[1,2,4]triazolo[4,3-c]pyrimidin-5-amine]
3.8 | 6.4 | Cc1ncc(-c2cnc(NCc3c(F)ccc4c3CCO4)n3cnnc23)c(C)n1 [Example 3, 8-(2,4-Dimethylpyrimidin-5-yl)-N-((5-fluoro-2,3-dihydrobenzofuran-4-yl)methyl)-[1,2,4]triazolo[4,3-c]pyrimidin-5-amine]
